The source of these data is PMC2865235 (Journal of pharmaceutical and biomedical analysis, 2010).

Where two headings read alike, the source gives them in different places.

One may read the IC50 as the concentration that inhibits the measured activity by half.

One data set has as its system ABCG2. As to conditions: cited from earlier work.
The next data set deals with ABCB1. As to conditions: cited from earlier work.
The conditions of data set [1]: human, 4 h.
The test system of a further data set is P388 cells. As to conditions: read-out: 72 h IC50, ref [2]; cited from earlier work.
The subject of a further data set is MCF-7 cells. The settings on record: read-out: 72 h IC50, ref [2]; cited from earlier work.
The test system of the next data set is HCT-116 cells. The settings on record: read-out: 72 h IC50, ref [2]; cited from earlier work.
The subject of data set [2] is Topo I cleavage complexes. The settings on record: drug 1 μM, compared with CPT or SN-38; ref [2]; cited from earlier work.
For the next data set, the system named is cell cycle. As to conditions: in vitro; ref [2]; cited from earlier work.

As for `CC[C@@]1(O)C(=O)OCc2c1cc1n(c2=O)Cc2cc3ccccc3nc2-1` [Camptothecin, camptothecin], the “Substrate for the efflux pump ABCG2” value in the data set with ABCG2 (ref [2]) is “good substrates”.
On to `COc1cc2c3c(n(CCCN4CCOCC4)c(=O)c2cc1OC)-c1cc2c(cc1C3=O)OCO2` [NSC 724998], for which the “Substrate for the efflux pump ABCG2” value in the data set on ABCG2 (not told) is “not a substrate”. Moreover, the “Substrate for ABCB1” value in the data set on ABCB1 is listed as “not a substrate”.
In the case of `COc1cc2c3c(n(CCCn4ccnc4)c(=O)c2cc1OC)-c1cc2c(cc1C3=O)OCO2` [NSC 725776], the “Protein binding in human plasma” value was above 98%. Besides, the “Stability in plasma at room temperature” value in [1] was above 94.3%. For the same compound, the IC50 with P388 cells is below 30 nM. For the same compound, the IC50 with MCF-7 cells was 90 nM. Further, in the data set on HCT-116 cells, the IC50 is 130 nM. The “Persistence of Topo I cleavage complexes after removal of drug” value in [2] was “persisted longer”. Further, the Cell cycle arrest result in the data set with cell cycle was “cell cycle arrest in both S and G(2)-M”. For the same compound, the “Substrate for the efflux pump ABCG2” value in the data set with ABCG2 (not told) is “moderate substrate”. Further, in the data set with ABCB1, the “Substrate for ABCB1” value is “moderate substrate”.
For `COc1cc2c3c(n(CCCN4CCOCC4)c(=O)c2cc1OC)-c1cc2c(cc1C3=O)OCO2.Cl` [NSC 743400], the “Protein binding in human plasma” value is recorded as above 98%. Further, in data set [1], the “Stability in plasma at room temperature” value is on record as above 94.3%. For the same compound, the IC50 in the data set with P388 cells was 300 nM. Moreover, in the data set on MCF-7 cells, the IC50 is 560 nM. Further, the IC50 in the data set with HCT-116 cells is 1200 nM. For the same compound, the “Persistence of Topo I cleavage complexes after removal of drug” value in [2] is recorded as “persisted longer”. Further, the Cell cycle arrest result in the data set on cell cycle is “cell cycle arrest in both S and G(2)-M”.
Turning to `CCc1c2c(nc3ccc(O)cc13)-c1cc3c(c(=O)n1C2)COC(=O)[C@]3(O)CC` [SN-38], the “Substrate for the efflux pump ABCG2” value in the data set with ABCG2 (ref [2]) is reported as “good substrates”.
For `CC[C@@]1(O)C(=O)OCc2c1cc1n(c2=O)Cc2cc3c(CN(C)C)c(O)ccc3nc2-1` [topotecan], in the data set on ABCG2 (ref [2]), the “Substrate for the efflux pump ABCG2” value is given as “good substrates”.
